What all share (type): functional
For one assay, the system named is Candida albicans. Put plainly: Antifungal activity against Candida albicans.
Assay [1] concerns Escherichia coli. Briefly: Antibacterial activity against Escherichia coli.
In assay [2] the test system is Staphylococcus aureus. Briefly: Antibacterial activity against Staphylococcus aureus.
In the next assay the test system is Bacillus subtilis. Put plainly: Antibacterial activity against Bacillus subtilis.
Assay [3] relates to Pseudomonas aeruginosa. Briefly: Antibacterial activity against Pseudomonas aeruginosa.
In assay [4] the test system is Pseudomonas aeruginosa. Briefly: Antibacterial activity against Pseudomonas aeruginosa after 24 hrs.
In assay [5] the test system is Escherichia coli. Briefly: Antibacterial activity against Escherichia coli ATCC 25922 after 24 hrs. The conditions noted are these: ATCC 25922, 24 h.
The subject of assay [6] is Staphylococcus aureus. Briefly: Antibacterial activity against Staphylococcus aureus ATCC 29213 after 24 hrs. Particulars: ATCC 29213, 24 h.
Assay [7] deals with Staphylococcus aureus. Put plainly: Antibacterial activity against Staphylococcus aureus ATCC 25923 after 24 hrs. Particulars: ATCC 25923, 24 h.
The next assay has as its system Enterococcus faecalis. Put plainly: Antibacterial activity against Enterococcus faecalis after 24 hrs.
The subject of the next assay is Klebsiella pneumoniae. Briefly: Antibacterial activity against Klebsiella pneumoniae after 24 hrs.
The subject of assay [8] is Pseudomonas aeruginosa. Briefly: Antibacterial activity against Pseudomonas aeruginosa ATCC 27853 after 24 hrs. The conditions noted are these: ATCC 27853, 24 h.
The subject of assay [9] is Staphylococcus aureus. Put plainly: Antibacterial activity against methicillin-resistant Staphylococcus aureus after 24 hrs.

The structures appear in SMILES notation. Values after ≈ are worked out from the molar mass of the structure shown.

Regarding `CC(=O)N1N=C(Cn2c([N+](=O)[O-])cnc2C)OC1c1ccc2c(c1)OCO2` (stereo unspecified), the MIC against Candida albicans was in the range of 0.25 to 0.5 µg/mL (≈ 0.67 to 1.34 µM); against Escherichia coli [1], 0.25 to 0.5 µg/mL (≈ 0.67 to 1.34 µM); with Staphylococcus aureus [2], 0.25 to 0.5 µg/mL; with Bacillus subtilis it was 0.25 to 0.5 µg/mL (≈ 0.67 to 1.34 µM); in the assay with Pseudomonas aeruginosa [3], 0.25 to 0.5 µg/mL (≈ 0.67 to 1.34 µM).

As to `CCOc1c(OC)cc(/C=C(\C#N)n2cc([N+](=O)[O-])nc2C)c2c1CN1CCc3cc4c(cc3C1C2)OCO4` (stereo unspecified), the MIC in the assay with Pseudomonas aeruginosa [4], in the assay on Escherichia coli [5], with Staphylococcus aureus [6], with Staphylococcus aureus [7], against Enterococcus faecalis and in the assay with Klebsiella pneumoniae was 3 to 1020 µM (≈ 1.59 to 541 µg/mL) throughout. The MIC in the assay with Pseudomonas aeruginosa [8] and in the assay with Staphylococcus aureus [9] was 3 to 1020 µM (≈ 1.59 to 541 µg/mL) in each case.

Turning to `COc1cc(/C=C(\C#N)n2cc([N+](=O)[O-])nc2C)c2c(c1OCc1ccc([N+](=O)[O-])cc1)CN1CCc3cc4c(cc3C1C2)OCO4` (stereo unspecified), the MIC with Pseudomonas aeruginosa [4], in the assay with Escherichia coli [5], with Staphylococcus aureus [6], in the assay on Staphylococcus aureus [7], in the assay on Enterococcus faecalis and with Klebsiella pneumoniae was 3 to 1020 µM (≈ 1.91 to 650 µg/mL) throughout. Also, the MIC in the assay with Pseudomonas aeruginosa [8] and against Staphylococcus aureus [9] was 3 to 1020 µM (≈ 1.91 to 650 µg/mL) in each case.

Regarding `COc1cc(/C=C(\C#N)n2cc([N+](=O)[O-])nc2C)c2c(c1OCc1ccc(Cl)cc1)CN1CCc3cc4c(cc3C1C2)OCO4` (stereo unspecified), the minimum inhibitory concentration (MIC) against Pseudomonas aeruginosa [4], in the assay on Escherichia coli [5], in the assay with Staphylococcus aureus [6], in the assay with Staphylococcus aureus [7], against Enterococcus faecalis and with Klebsiella pneumoniae was 3 to 1020 µM (≈ 1.88 to 639 µg/mL) throughout. In addition, the minimum inhibitory concentration (MIC) against Pseudomonas aeruginosa [8] and against Staphylococcus aureus [9] was 3 to 1020 µM (≈ 1.88 to 639 µg/mL) throughout.

As to `COc1cc(/C=C(\C#N)n2cc([N+](=O)[O-])nc2C)c2c(c1OCC(C)=O)CN1CCc3cc4c(cc3C1C2)OCO4` (stereo unspecified), the MIC against Pseudomonas aeruginosa [4], against Escherichia coli [5], in the assay on Staphylococcus aureus [6], with Staphylococcus aureus [7], with Enterococcus faecalis and in the assay with Klebsiella pneumoniae was 3 to 1020 µM (≈ 1.67 to 569 µg/mL) each time. Besides, the MIC against Pseudomonas aeruginosa [8] and against Staphylococcus aureus [9] was 3 to 1020 µM (≈ 1.67 to 569 µg/mL) each time.

`CC(=O)N1N=C(Cn2c([N+](=O)[O-])cnc2C)OC1(C)c1ccc(C)cc1` (stereo unspecified): the MIC in the assay with Candida albicans was 0.25 to 0.5 µg/mL (≈ 0.7 to 1.4 µM); with Escherichia coli [1] it was 0.25 to 0.5 µg/mL (≈ 0.7 to 1.4 µM); against Staphylococcus aureus [2], 0.25 to 0.5 µg/mL; with Bacillus subtilis, 0.25 to 0.5 µg/mL (≈ 0.7 to 1.4 µM); against Pseudomonas aeruginosa [3], 0.25 to 0.5 µg/mL (≈ 0.7 to 1.4 µM).

With `CCCCCCCCCCOc1c(OC)cc(/C=C(\C#N)n2cc([N+](=O)[O-])nc2C)c2c1CN1CCc3cc4c(cc3C1C2)OCO4` (stereo unspecified), the minimum inhibitory concentration (MIC) against Pseudomonas aeruginosa [4], in the assay on Escherichia coli [5], in the assay on Staphylococcus aureus [6], in the assay on Staphylococcus aureus [7], in the assay with Enterococcus faecalis and against Klebsiella pneumoniae was 3 to 1020 µM (≈ 1.93 to 655 µg/mL) throughout. For the same compound, the MIC against Pseudomonas aeruginosa [8] and in the assay on Staphylococcus aureus [9] was 3 to 1020 µM (≈ 1.93 to 655 µg/mL) in each case.

As to `CC(=O)N1N=C(Cn2c([N+](=O)[O-])cnc2C)OC1c1ccc([N+](=O)[O-])cc1` (stereo unspecified), the minimal inhibitory concentration (MIC) against Candida albicans was 0.25 to 0.5 µg/mL (≈ 0.668 to 1.34 µM); in the assay on Escherichia coli [1] it was 0.25 to 0.5 µg/mL (≈ 0.668 to 1.34 µM); in the assay with Staphylococcus aureus [2] it was 0.25 to 0.5 µg/mL; in the assay on Bacillus subtilis, 0.25 to 0.5 µg/mL (≈ 0.668 to 1.34 µM); with Pseudomonas aeruginosa [3] it was 0.25 to 0.5 µg/mL (≈ 0.668 to 1.34 µM).

As to `COc1ccc(C2(C)OC(Cn3c([N+](=O)[O-])cnc3C)=NN2C(C)=O)cc1` (stereo unspecified), the MIC was 0.25 to 0.5 µg/mL (≈ 0.67 to 1.34 µM) in the assay on Candida albicans; 0.25 to 0.5 µg/mL (≈ 0.67 to 1.34 µM) against Escherichia coli [1]; 0.25 to 0.5 µg/mL in the assay with Staphylococcus aureus [2]; 0.25 to 0.5 µg/mL (≈ 0.67 to 1.34 µM) with Bacillus subtilis; 0.25 to 0.5 µg/mL (≈ 0.67 to 1.34 µM) in the assay on Pseudomonas aeruginosa [3].

For `CC(=O)N1N=C(Cn2c([N+](=O)[O-])cnc2C)OC1(C)c1ccccc1` (stereo unspecified), the minimum inhibitory concentration (MIC) against Candida albicans was 0.25 to 0.5 µg/mL (≈ 0.728 to 1.46 µM); with Escherichia coli [1], 0.25 to 0.5 µg/mL (≈ 0.728 to 1.46 µM); with Staphylococcus aureus [2], 0.25 to 0.5 µg/mL; against Bacillus subtilis it was 0.25 to 0.5 µg/mL (≈ 0.728 to 1.46 µM); in the assay with Pseudomonas aeruginosa [3] it was 0.25 to 0.5 µg/mL (≈ 0.728 to 1.46 µM).

For the compound `C#CCOc1c(OC)cc(/C=C(\C#N)n2cc([N+](=O)[O-])nc2C)c2c1CN1CCc3cc4c(cc3C1C2)OCO4` (stereo unspecified), the MIC against Pseudomonas aeruginosa [4], with Escherichia coli [5], in the assay on Staphylococcus aureus [6], in the assay on Staphylococcus aureus [7], in the assay on Enterococcus faecalis and against Klebsiella pneumoniae was 3 to 1020 µM (≈ 1.62 to 551 µg/mL) throughout. Besides, the MIC against Pseudomonas aeruginosa [8] and in the assay on Staphylococcus aureus [9] was 3 to 1020 µM (≈ 1.62 to 551 µg/mL) throughout.

Take `COc1cc(/C=C(\C#N)n2cc([N+](=O)[O-])nc2C)c2c(c1OCC#N)CN1CCc3cc4c(cc3C1C2)OCO4` (stereo unspecified): the minimal inhibitory concentration (MIC) in the assay with Pseudomonas aeruginosa [4], with Escherichia coli [5], with Staphylococcus aureus [6], against Staphylococcus aureus [7], against Enterococcus faecalis and against Klebsiella pneumoniae was 3 to 1020 µM (≈ 1.62 to 552 µg/mL) each time. Further, the minimum inhibitory concentration (MIC) against Pseudomonas aeruginosa [8] and in the assay with Staphylococcus aureus [9] was 3 to 1020 µM (≈ 1.62 to 552 µg/mL) in each case.

Turning to `Cc1nc([N+](=O)[O-])cn1Cc1nn(CN2CCNCC2)c(=S)o1`, the minimal inhibitory concentration (MIC) against Staphylococcus aureus [2] is 184 µM.

On to `NC[C@H]1O[C@H](O[C@H]2[C@H](O)[C@@H](O[C@H]3O[C@H](CO)[C@@H](O)[C@H](N)[C@H]3O)[C@H](N)C[C@@H]2N)[C@H](O)[C@@H](O)[C@@H]1O` [KANAMYCIN], for which the MIC in the assay with Escherichia coli [1] is 1.56 to 3.12 µg/mL (≈ 3.22 to 6.44 µM); against Staphylococcus aureus [2], 1.56 to 3.12 µg/mL; in the assay with Bacillus subtilis, 1.56 to 3.12 µg/mL (≈ 3.22 to 6.44 µM); in the assay with Pseudomonas aeruginosa [3], 1.56 to 3.12 µg/mL (≈ 3.22 to 6.44 µM).

These data come from ChEMBL document CHEMBL4304773, “Nitroimidazole-containing compounds and their antibacterial and antitubercular activities” (2019).
